# Tested on: thoracic arteries of old rats
# Experiment: Acetylcholine blood vessel relaxation reaction test on thoracic artery rings after 3 months of diet
# Format: in vivo, rat
# Source text: The effect of triglyceride (arachidonic acid-containing oil (SUNTGA40S)) having arachidonic acid as a component fatty acid prepared in Reference Example 1 on the acetylcholine blood vessel relaxation reaction was investigated using rats. As the test groups of old rats, 15 19-month old male Fischer rats were divided into a control diet group (8 rats: OC group) and a SUNTGA40S compound diet group (7 rats: OA group).
# The amount of intake of rats was about 20 g and the daily intake of SUNTGA40S per rat was 100 mg. Of the total fatty acids bonded with the arachidonic acid-containing oil (SUNTGA40S) prepared in Reference Example 1, 40% is arachidonic acid, so the daily intake of arachidonic acid per rat became 40 mg. This 40 mg corresponds to 133 mg/60 kg/day converted to human intake.
# In the third month of raising (in the case of old rats, 22-month age and in the case of young rats, four-month age), the thoracic arteries were excised. Part was used for the in vitro blood vessel relaxation reaction test, while the remaining blood vessels were used for analysis of the fatty acid composition. […]
smiles,measurement,setting,value
"CCCCC/C=C\C/C=C\C/C=C\C/C=C\CCCC(=O)OC(COC(=O)CCCCCCC)COC(=O)CCCCCCC [8A8, 1,3-capryloyl-2-arachidonoyl-glycerol]",average blood vessel relaxation rate by acetylcholine 10^-7M,"old male Fischer rats (22-month age), 8A8 diet 3 months (40 mg arachidonic acid/rat/day), old control diet 52.3%, young control diet 80.5%",62.7%
same,blood vessel relaxation response,"old rats, 8A8 diet 3 months, vs old rats on control diet",improved

# Source: patent publication US20060088573A1, “Composition having action preventing or alleviating symtoms or diseases due to aging of blood vessels” (Suntory Limited, priority 2003, published 2006)
